# Test results reported in patent US6015808A, “Synthesis of pharmaceutical compositions with lactams and β-lactams/oxo thia azabicyclo compounds” (priority 1995, dated 2000).
# “Also recorded” adds a separate entry of the source. Starred links: 1 amine or outer side, 2 acyl side, 3 side chain; linkers in the order of their positions; H or OH if unused. Positions of bridges follow the written chain, without caps; N, C: chain ends. Non-standard residues stand in square brackets, D forms with d. Residues, ends and D or L forms follow the SMILES beside them. Chains are numbered I, II in the order given. Actinocin(9to1) = Cc1c2oc3c(C)ccc(C(=O)[*:1])c3nc-2c(C(=O)[*:2])c(N)c1=O; NMeV = CN[C@H](C(=O)O)C(C)C; Sar = CNCC(=O)O
# Legend:
# [1] = tested on: P. marneffei; assay: in vitro MIC against P. marneffei, tube double dilution; assay type: cell-based, Penicillium marneffei; conditions: Talaromyces marneffei, standard tube double dilution, read-out: minimum inhibitory concentration (MIC)
# [2] = tested on: Candida albicans; assay: survival of mice challenged with Candida albicans; assay type: in vivo, Swiss albino mice; conditions: for survival rate: 21-day study period, clotrimazole types 7.5 mg/kg, nystatin types 50 mg/kg; for survival rate after extended treatment: treatment extended two more weeks, 28 days post-inoculation
# [3] = tested on: human breast carcinoma MX-1; assay: MX-1 human breast tumor in nude mice; conditions: intraperitoneal; for effect on MX-1 tumors (in words): 0.5 mg/kg escalating to 5 mg/kg (parents) or 20 mg/kg (JAI-); for deaths / survival of MX-1 mice (in words): 3 animals per group
# Method: Nude mice were grafted with transplantable human breast carcinoma MX-1, which was allowed to grow until the tumors were very large. The mice were then treated with clinically compatible dosage schedules of the compounds. All doses were administered intraperitoneally.
# A control group (3 animals in the group), grafted with MX-1 tumor, which was allowed to grow to large tumors. Then, the mice were injected with distilled water and their tumors were measured simultaneously with the experimental treated animals.
# 1. […] The starting dose of mitomycin C was 0.5 mg/kg. escalating up to 5 mg/kg to all mice in the group. […] (3 animals per group).
# 2. […] The starting dose was 0.5 mg/kg escalating to 20 mg/kg. […] (3 animals per group).
# 3. […] The starting dose was 0.5 mg/kg escalating to 5 mg/kg. (3 animals per group).
# 4. […] The starting dose was 0.5 mg/kg escalating to 20mg/kg doses. (3 animals per group).
# [4] = tested on: Mycobacterium avicum Complex (MAC); conditions: cited from earlier work
# [5] = tested on: M. leprae; assay: in vitro culture of M. leprae, growth inhibition; assay type: cell-based
# [6] = oral absorption; assay type: in vivo
# [7] = toxicity / LD 50 in mice; conditions: mouse, in vivo
# [8] = tested on: fungi; conditions: cited from earlier work
# [9] = tested on: bacteria; conditions: cited from earlier work
# [10] = tested on: Bacillus subtilis; conditions: 28° C., 12 hours
# Method: All plates were incubated at 10° C. for 30 minutes, and then transferred to an incubator at 28° C. for 12 hours. Zones of inhibition were obtained from each plate, and Rf values were calculated.
compound,measurement,setting,value
"Nc1nc(=O)[nH]cc1F [5-FC, 5-fluorocytosine]",MIC,[1],0.195 to 0.78 µg/mL
Clc1ccccc1C(c1ccccc1)(c1ccccc1)n1ccnc1 [Clotrimazole],solubility in water,,insoluble in water
same,survival rate,[2],62.5%
same,survival rate after extended treatment,[2],zero
CO[C@@]12[C@H](COC(N)=O)C3=C(C(=O)C(C)=C(N)C3=O)N1C[C@@H]1N[C@@H]12 [Mitomycin C],effect on MX-1 tumors (in words),[3]; listed as Mitomycin-C,the tumors regressed
same,effect on MX-1 tumors (in words),[3]; listed as mitomycin-C,eliminated the human MX-1 breast tumors
same,deaths / survival of MX-1 mice (in words),[3]; listed as Mitomycin-C,died
same,deaths / survival of MX-1 mice (in words),[3]; listed as mitomycin-C,All animals died in a two month time span; also recorded: all animals in this treatment group died from hepatotoxicity
NCC[C@H](O)C(=O)N[C@@H]1C[C@H](N)[C@@H](O[C@H]2O[C@H](CN)[C@@H](O)[C@H](O)[C@H]2O)[C@H](O)[C@H]1O[C@H]1O[C@H](CO)[C@@H](O)[C@H](N)[C@H]1O [amikacin],activity against MAC (earlier studies),[4],high in vitro and in vyvn activity
same,inhibition at 100 µg/mL,"[5]; Mycobacterium leprae, 100 mcg/ml, read-out: growth inhibition against M. leprae",63%
same,M. leprae killed,[5]; concentration not given,63%
same,effect of combination with dapsone on M. leprae,[5]; in combination with dapsone,did not show any additive effects
C[C@@H]1[C@H](O)[C@@H](C)/C=C/C=C/C=C/C=C/C=C/C=C/C=C/[C@H](O[C@@H]2O[C@H](C)[C@@H](O)[C@H](N)[C@@H]2O)C[C@@H]2O[C@](O)(C[C@@H](O)C[C@@H](O)[C@H](O)CC[C@@H](O)C[C@@H](O)CC(=O)O[C@H]1C)C[C@H](O)[C@H]2C(=O)O [amphotericin B],MIC,[1],0.195 to 1.56 µg/mL
same,oral absorption,[6],poorly absorbed orally
"Cc1c2oc3c(C)ccc(C(=O)N[C@@H]4C(=O)N[C@H](C(C)C)C(=O)N5CCC[C@H]5C(=O)N(C)CC(=O)N(C)[C@@H](C(C)C)C(=O)O[C@@H]4C)c3nc-2c(C(=O)N[C@@H]2C(=O)N[C@H](C(C)C)C(=O)N3CCC[C@H]3C(=O)N(C)CC(=O)N(C)[C@@H](C(C)C)C(=O)O[C@@H]2C)c(N)c1=O [dactinomycin] (I: T[dV]P[Sar][NMeV] / II: T[dV]P[Sar][NMeV]; ester I:1-I:C, II:1-II:C; linker I:N-II:N via Actinocin(9to1))",LD50,[7],0.5 to 5 mg/kg
CC(=O)N1CCN(c2ccc(OCC3COC(Cn4ccnc4)(c4ccc(Cl)cc4Cl)O3)cc2)CC1 (stereo not drawn) [ketoconazole],MIC,[1],0.195 to 0.39 µg/mL
Clc1ccc(COC(Cn2ccnc2)c2ccc(Cl)cc2Cl)c(Cl)c1 (stereo not drawn) [miconazole],MIC,[1],0.195 µg/mL
C[C@@H]1[C@H](O)[C@@H](C)/C=C/C=C/CC/C=C/C=C/C=C/C=C/C(O[C@H]2O[C@H](C)[C@@H](O)[C@H](N)[C@@H]2O)CC2O[C@](O)(CC(O)C(O)CCC(O)CC(O)CC(O)CC(=O)O[C@H]1C)CC(O)C2C(=O)O (stereo partly drawn) [nystatin],survival rate,[2],75%
same,survival rate after extended treatment,[2],75%
CC1(C)S[C@@H]2[C@H](NC(=O)Cc3ccccc3)C(=O)N2[C@H]1C(=O)O [sodium penicillin G],antifungal activity (stated as known),[8],no antifungal activity
same,solubility in acetone,acetone,insoluble in acetone
same,"solubility in methanol, alcohol, other solvents","methanol, alcohols, ethyl acetate, other solvents","soluble in water, alcohol and some solvents"
same,solubility in water,,soluble in water
bleomycin,effect on MX-1 tumors (in words),[3],"some initial slowing in tumor growth, but then had no response"
same,effect on MX-1 tumors (in words),[3]; listed as Bleomycin,"some initial slowing of tumor growth, but then there was no response"
hamycin,antibacterial activity (stated as known),[9],no antibacterial activity
same,"zone of inhibition, B. subtilis seeded plate",[10],no zone spot
